The target of one assay is HPK1-FL (HPK full length, T165E S171E) (Homo sapiens (Human), UniProt Q92918, S171E/T165E). Kind of assay: HPK1-FL HTRF Enzymatic Assay ("HTRF"). Format: biochemical. The settings on record: ATP 1 mM, Table B1-2, read-out: HPK1 Ki, H = HTRF. The procedure:
HPK1-FL HTRF Enzymatic Assay (“HTRF”)
HPK-FL enzyme phosphorylates Biotin-SLP-76 substrate in the presence of ATP at 1 mM and varying concentrations of test compound. Product is detected by FRET using Eu-anti-pSLP76 Ab and SA-XL665. See www.cisbio.com/HTRF for additional HTRF technology information.
Instrumentation: • Echo555 compound dispenser • Agilent Bravo • Perkin Elmer Envision
Materials: • Assay plate: White ProxiPlate 384 F (PerkinElmer cat #6008289) • Kinase: HPK full length double mutant • Substrate: Biotin-SLP76 • ATP: 100 mM ATP • BSG: 2% BSG • DMSO: DMSO (Sigma cat #34869-100ML) • Reaction Buffer: H2O/50 mM HEPES, pH 7.5/10 mM MgCl2/2 mM TCEP/0.01% Brij-35/0.01% BSG • Detection mix: Eu-anti-pSLP76/SA-XL665 (Cisbio, #610SAXAC)
Assay Procedure Ki Determination:
To a 384 well Proxiplate with 80 nL compound or DMSO spotted on was added 4 μl/well kinase mix. The mixture was preincubated for 30 minutes and then 4 μl/well substrate mix was added. The solution was incubated for 60 min and then 4 μl/well detection mix was added. The solution was incubated for another 60 min. The plates were then loaded onto a Perkin Elmer Envision and the TR-FRET signal was measured at 615 and 665 nm. A ratio of […] was used to calculate the % activity at each concentration of compound.
Sequence of HPK1 (Homo sapiens, UniProt Q92918) (Q92918 whole entry, looked up): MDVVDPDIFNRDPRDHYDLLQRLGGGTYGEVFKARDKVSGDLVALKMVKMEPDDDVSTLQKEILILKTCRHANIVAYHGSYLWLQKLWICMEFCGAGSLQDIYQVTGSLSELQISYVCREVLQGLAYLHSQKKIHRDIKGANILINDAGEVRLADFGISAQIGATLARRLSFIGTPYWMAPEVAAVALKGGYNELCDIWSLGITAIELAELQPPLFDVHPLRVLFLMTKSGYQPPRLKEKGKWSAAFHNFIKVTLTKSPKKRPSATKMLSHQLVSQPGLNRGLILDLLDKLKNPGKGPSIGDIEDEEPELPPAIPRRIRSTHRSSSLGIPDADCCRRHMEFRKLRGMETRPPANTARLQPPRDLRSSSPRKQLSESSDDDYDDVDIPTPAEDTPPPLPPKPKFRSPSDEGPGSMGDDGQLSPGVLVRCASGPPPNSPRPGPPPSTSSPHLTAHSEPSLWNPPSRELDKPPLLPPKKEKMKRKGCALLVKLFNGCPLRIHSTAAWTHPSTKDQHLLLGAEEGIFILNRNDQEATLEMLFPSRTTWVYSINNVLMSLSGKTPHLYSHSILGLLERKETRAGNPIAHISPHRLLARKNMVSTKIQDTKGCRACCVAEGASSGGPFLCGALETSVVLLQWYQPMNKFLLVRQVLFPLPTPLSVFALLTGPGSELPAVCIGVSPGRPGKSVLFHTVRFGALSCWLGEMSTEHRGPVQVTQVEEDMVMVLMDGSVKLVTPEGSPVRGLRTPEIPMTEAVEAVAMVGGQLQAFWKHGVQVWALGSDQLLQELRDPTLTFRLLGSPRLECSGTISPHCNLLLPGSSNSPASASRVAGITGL
Sequence of HPK1-FL (HPK full length, T165E S171E) (Q92918 whole entry T165E/S171E): as the sequence (Q92918 whole entry, looked up) above, with T165E, S171E counted along it
Take `Cc1cc(-c2ncco2)cc(F)c1-c1cc2cc(NC(=O)[C@H]3[C@H](C)[C@@H]3c3cnn(C)c3)ncc2c(N)n1` (single isomer, unassigned) [Compound 349, N-(8-amino-6-(2-fluoro-6-methyl-4-(oxazol-2-yl)phenyl)-2,7-naphthyridin-3-yl)-2-methyl-3-(1-methyl-1H-pyrazol-4-yl)cyclopropane-1-carboxamide]: the Ki amounted to 6.2 nM. For `Cc1c(N)cncc1-c1cc2cc(Nc3cc4n(n3)CC(=O)N(C)CC4)ncc2c(N)n1` [Compound 415, 2-((8-amino-6-(5-amino-4-methylpyridin-3-yl)-2,7-naphthyridin-3-yl)amino)-6-methyl-5,6-dihydro-4H-pyrazolo[1,5-d][1,4]diazepin-7(8H)-one], the Ki came out at 0.21 nM. Regarding `CC(Oc1ccccn1)c1cc2cc(Nc3cc4n(n3)CC(=O)N(C(C)C)CC4)ncc2c(N)n1` (racemic) [Compound 419, (+/−)-2-((8-amino-6-(1-(pyridin-2-yloxy)ethyl)-2,7-naphthyridin-3-yl)amino)-6-isopropyl-5,6-dihydro-4H-pyrazolo[1,5-d][1,4]diazepin-7(8H)-one], the Ki came to 511 nM. Consider `Cc1cc(C(N)=O)cc(F)c1-c1cc2cc(NC(=O)[C@@H]3C[C@H]3c3cnn(C)c3)ncc2c(N)n1` (single isomer, unassigned) [Compound 352], for which the Ki is 5 nM. For `Cc1cc(C(N)=O)cc(F)c1-c1cc2cc(NC(=O)[C@H]3C[C@@H]3c3cnn(C)c3)ncc2c(N)n1` (single isomer, unassigned) [Compound 351], the Ki came to 0.33 nM. Turning to `Cc1c(N)cncc1-c1cc2cc(Nc3cc4n(n3)CC(=O)N(C)CC43CC3)ncc2c(N)n1` [Compound 414, 2′-((8-amino-6-(5-amino-4-methylpyridin-3-yl)-2,7-naphthyridin-3-yl)amino)-6′-methyl-5′,6′-dihydrospiro[cyclopropane-1,4′-pyrazolo[1,5-d][1,4]diazepin]-7′(8′H)-one], the Ki came to 0.013 nM. On to `CC(C)N1CCc2cc(Nc3cc4cc(C(C)n5ccccc5=O)nc(N)c4cn3)nn2CC1=O` (racemic) [Compound 420, (+/−)-2-((8-amino-6-(1-(2-oxopyridin-1(2H)-yl)ethyl)-2,7-naphthyridin-3-yl)amino)-6-isopropyl-5,6-dihydro-4H-pyrazolo[1,5-d][1,4]diazepin-7(8H)-one], for which the Ki worked out at 1640 nM. On to `Cc1cc(-c2ncco2)cc(F)c1-c1cc2cc(NC(=O)[C@H]3[C@@H](C)[C@@H]3c3cnn(C)c3)ncc2c(N)n1` (single isomer, unassigned) [Compound 350], for which the inhibitory constant (Ki) was determined as 39.7 nM.

The next assay deals with HPK1 (Homo sapiens, UniProt Q92918). Kind of assay: HPK1 Lantha Binding Assay ("Lanth"). The settings on record: Table B1-1, read-out: HPK1 Ki (μM) (Lanth). A digest of the protocol:
(§1)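 TR-FRET tracer displacement with 2 nM GST-tagged kinase, 2 nM Eu-anti-GST antibody and 15 nM Tracer222 at 23 C. Enzyme–antibody preincubated 1 h with compound, then tracer added for 1 h; 340 nm excitation, 615/665 nm emission. Ki from Morrison fit over an 11-point 5-fold dilution.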
As to `Nc1nc(-c2ccc[nH]c2=O)cc2cc(NC(=O)C3CC3)ncc12` [Compound 42, N-(8-amino-6-(2-oxo-1,2-dihydropyridin-3-yl)-2,7-naphthyridin-3-yl) cyclopropanecarboxamide], the Ki was found to be 5800 nM.

In the case of `Cn1cc([C@H]2C[C@@H]2C(=O)Nc2cc3c(Cl)c(-c4cnccc4CCO)nc(N)c3cn2)cn1` (single isomer, unassigned) [Compound 332], the Ki stood at 5.62 nM. The same measure, in the same setting: with `CCc1ccncc1-c1cc2cc(Nc3cc(C(O)CC)ccn3)ncc2c(N)n1` (racemic) [Compound 82, (±)-1-{2-[8-Amino-6-(4-ethylpyridin-3-yl)-[2,7]naphthyridin-3-ylamino]-pyridin-4-yl}propan-1-ol] the figure was 0.4 nM; with `Cc1c(N)cncc1-c1cc2cc(NC(=O)[C@@H]3C[C@H]3C#N)ncc2c(N)n1` (racemic) [Compound 165, (±)-trans-N-(8-amino-6-(5-amino-4-methylpyridin-3-yl)-2,7-naphthyridin-3-yl)-2-cyanocyclopropanecarboxamide], 0.95 nM; with `Nc1nc(-c2cnccc2C2CC2)cc2cc(NC(=O)[C@@H]3C[C@@H]3F)ncc12` (racemic) [Compound 46, (±)-cis-N-(8-amino-6-(4-cyclopropylpyridin-3-yl)-2,7-naphthyridin-3-yl)-2-fluorocyclopropanecarboxamide], 1.52 nM.

As to `CC(=O)N1CCC([C@@H]2C[C@H]2C(=O)Nc2cc3cc(-c4cnccc4C)nc(N)c3cn2)CC1` (racemic) [Compound 166, (±)-trans-2-(1-acetylpiperidin-4-yl)-N-(8-amino-6-(4-methylpyridin-3-yl)-2,7-naphthyridin-3-yl)cyclopropanecarboxamide], the Ki turned out to be 1.5 nM. Take `CNC(=O)c1ccc(-c2cc3cc(NC(=O)[C@@H]4C[C@@H]4F)ncc3c(N)n2)c(C)c1` (racemic) [Compound 49, 4-(1-amino-6-((cis)-2-fluorocyclopropanecarboxamido)-2,7-naphthyridin-3-yl)-N,3-dimethylbenzamide]: the Ki came to 6.82 nM. On to `Cc1ccncc1-c1cc2cc(NC(=O)C(C)C#N)ncc2c(N)n1` (racemic) [Compound 38, N-(8-amino-6-(4-methylpyridin-3-yl)-2,7-naphthyridin-3-yl)-2-cyanopropanamide], for which the Ki was 48.4 nM. For `Cc1ccncc1-c1cc2cc(NC(=O)[C@@H]3C[C@H]3F)ncc2c(N)n1` (single isomer, unassigned) [Compound 107, (trans)-N-(8-amino-6-(4-methylpyridin-3-yl)-2,7-naphthyridin-3-yl)-2-fluorocyclopropane-1-carboxamide], the Ki was determined as 0.654 nM. Turning to `CNc1cncc(-c2cc3cc(NC(=O)[C@@H]4C[C@@H]4F)ncc3c(N)n2)c1C` (racemic) [Compound 216, (+/−)-cis-N-(8-amino-6-(4-methyl-5-(methylamino)pyridin-3-yl)-2,7-naphthyridin-3-yl)-2-fluorocyclopropanecarboxamide], the Ki came to 3.53 nM. The same measure, in the same setting: with `Cc1nn(C)c(C)c1-c1cc2cc(NC(=O)[C@@H]3C[C@@H]3F)ncc2c(N)n1` (racemic) [Compound 3, (±)-cis-N-(8-amino-6-(1,3,5-trimethyl-1H-pyrazol-4-yl)-2,7-naphthyridin-3-yl)-2-fluorocyclopropanecarboxamide] the figure was 5.14 nM; with `Cc1ccncc1-c1cc2cc(NC(=O)[C@H]3C[C@@H]3C(=O)N(C)C)ncc2c(N)n1` (racemic) [Compound 138, (±)-trans-N1-(8-amino-6-(4-methylpyridin-3-yl)-2,7-naphthyridin-3-yl)-N2,N2-dimethylcyclopropane-1,2-dicarboxamide], 32 nM. Consider `CCS(=O)(=O)n1cc([C@H]2C[C@@H]2C(=O)Nc2cc3cc(-c4cnccc4C)nc(N)c3cn2)cn1` (racemic) [Compound 146, (±)-trans-N-[8-amino-6-(4-methyl-3-pyridyl)-2,7-naphthyridin-3-yl]-2-(1-ethylsulfonylpyrazol-4-yl)cyclopropanecarboxamide], for which the Ki was 0.02 nM. Regarding `Nc1nc(-c2cccnc2)cc2cc(NC(=O)[C@@H]3C[C@@H]3F)ncc12` (racemic) [Compound 106, (±)-cis-N-(8-amino-6-(pyridin-3-yl)-2,7-naphthyridin-3-yl)-2-fluorocyclopropane-1-carboxamide], the Ki came to 4.97 nM.

The assay is the same for the next values; noted with them: Table B1-2, read-out: HPK1 Ki, L = Lanth.
`Cc1cccc(CC#N)c1-c1cc2cc(NC(=O)[C@H]3C[C@@H]3c3cnn(C)c3)ncc2c(N)n1` (racemic) [Compound 382, (+/−)-trans-N-(8-amino-6-(2-(cyanomethyl)-6-methylphenyl)-2,7-naphthyridin-3-yl)-2-(1-methyl-1H-pyrazol-4-yl)cyclopropane-1-carboxamide]: the Ki turned out to be 14 nM.

The target in a further assay is HPK1. The assay can be described thus: HPK1 Lantha Binding Assay ("Lanth"). The settings on record: Table B1-1, read-out: HPK1 Ki (μM) (Lanth). Put shortly: as §1
Take `Nc1nc(-c2ccc[nH]c2=O)cc2cc(NC(=O)C3CC3)ncc12` [Compound 42, N-(8-amino-6-(2-oxo-1,2-dihydropyridin-3-yl)-2,7-naphthyridin-3-yl) cyclopropanecarboxamide]: the Ki was 0.0405 µM.

As usually defined, the Ki is a measure of affinity in units of concentration, obtained from inhibition or displacement.
